Measurements as given in ChEMBL document CHEMBL3885861, “Open TG-GATES”.

Species: Rattus norvegicus
Assay: Open TG-GATES - Regimen: Single
Format: toxicity, organism-based, Sprague-Dawley
Set-up: regimen Single, gender Male, age 6 weeks
Settings: in vivo, po, route gavage; for Bas / Eos / Fbg / Lym / Mono / RBC / Ret / WBC: tissue Blood; for KIDNEY_L / KIDNEY_R / KIDNEY_TOTAL: tissue Kidney
[1] = 60 mg/kg, 3 h, dose level Middle
[2] = 60 mg/kg, 3 h, tissue Plasma, dose level Middle
[3] = 60 mg/kg, 6 h, dose level Middle
[4] = 60 mg/kg, 6 h, tissue Plasma, dose level Middle
[5] = 60 mg/kg, 9 h, dose level Middle
[6] = 60 mg/kg, 9 h, tissue Plasma, dose level Middle
[7] = 60 mg/kg, 24 h, dose level Middle
[8] = 60 mg/kg, 24 h, tissue Plasma, dose level Middle
[9] = 200 mg/kg, 3 h, dose level High
[10] = 200 mg/kg, 3 h, tissue Plasma, dose level High
[11] = 200 mg/kg, 6 h, dose level High
[12] = 200 mg/kg, 6 h, tissue Plasma, dose level High
[13] = 200 mg/kg, 9 h, dose level High
[14] = 200 mg/kg, 9 h, tissue Plasma, dose level High
[15] = 200 mg/kg, 24 h, dose level High
[16] = 200 mg/kg, 24 h, tissue Plasma, dose level High

Compound: C=C[C@H]1C[N@@]2CC[C@H]1C[C@@H]2[C@@H](O)c1ccnc2ccc(OC)cc12 [QUINIDINE]
- Bas [1]: 0%
- Eos [1]: 0.4%
- Fbg [1]: 295 mg/dL
- Lym [1]: 73.2%
- Mono [1]: 2.6%
- RBC [1]: 588 x10_4/ul
- Ret [1]: 7.6%
- WBC [1]: 87.1 x10_2/uL
- KIDNEY_L [1]: 1 g
- KIDNEY_R [1]: 1 g
- KIDNEY_TOTAL [1]: 2 g
- ALP [2]: 1472.8 IU/L
- CRE [2]: 0.2 mg/dL
- DBIL [2]: 0.002 mg/dL
- IP [2]: 9.1 mg/dL
- K [2]: 4 meq/L
- LDH [2]: 131.2 IU/L
- Na [2]: 140.6 meq/L
- PL [2]: 148.2 mg/dL
- RALB [2]: 2.9 g/dL
- TBIL [2]: 0.026 mg/dL
- TG [2]: 56.2 mg/dL
- TP [2]: 5.2 g/dL
- gamma-GTP [2]: 2.2 IU/L
- TERMINAL_BW [3]: 218.5 g
- Bas [3]: 0%
- Eos [3]: 0.8%
- Fbg [3]: 301.2 mg/dL
- Lym [3]: 79.8%
- Mono [3]: 2.2%
- RBC [3]: 623.4 x10_4/ul
- Ret [3]: 6.6%
- WBC [3]: 77.2 x10_2/uL
- KIDNEY_L [3]: 1 g
- KIDNEY_R [3]: 1 g
- KIDNEY_TOTAL [3]: 2 g
- ALP [4]: 1426.2 IU/L
- CRE [4]: 0.2 mg/dL
- DBIL [4]: 0.002 mg/dL
- IP [4]: 9.1 mg/dL
- K [4]: 4.3 meq/L
- LDH [4]: 136.2 IU/L
- Na [4]: 142.6 meq/L
- PL [4]: 149.4 mg/dL
- RALB [4]: 3 g/dL
- TBIL [4]: 0.022 mg/dL
- TG [4]: 83.2 mg/dL
- TP [4]: 5.3 g/dL
- gamma-GTP [4]: 1.4 IU/L
- TERMINAL_BW [5]: 207.3 g
- Bas [5]: 0%
- Eos [5]: 0.8%
- Fbg [5]: 300 mg/dL
- Lym [5]: 77%
- Mono [5]: 1.6%
- RBC [5]: 622.8 x10_4/ul
- Ret [5]: 6.8%
- WBC [5]: 59.2 x10_2/uL
- KIDNEY_L [5]: 1 g
- KIDNEY_R [5]: 1 g
- KIDNEY_TOTAL [5]: 2 g
- ALP [6]: 1460.8 IU/L
- CRE [6]: 0.2 mg/dL
- DBIL [6]: 0.002 mg/dL
- IP [6]: 9.6 mg/dL
- K [6]: 4.4 meq/L
- LDH [6]: 141.8 IU/L
- Na [6]: 143.8 meq/L
- PL [6]: 139.8 mg/dL
- RALB [6]: 3 g/dL
- TBIL [6]: 0.024 mg/dL
- TG [6]: 74 mg/dL
- TP [6]: 5.4 g/dL
- gamma-GTP [6]: 1 IU/L
- TERMINAL_BW [7]: 225.2 g
- Bas [7]: 0%
- Eos [7]: 0.8%
- Fbg [7]: 337.8 mg/dL
- Lym [7]: 72.4%
- Mono [7]: 3.4%
- RBC [7]: 650.2 x10_4/ul
- Ret [7]: 6.9%
- WBC [7]: 95.3 x10_2/uL
- KIDNEY_L [7]: 1 g
- KIDNEY_R [7]: 1 g
- KIDNEY_TOTAL [7]: 2 g
- ALP [8]: 1697 IU/L
- CRE [8]: 0.1 mg/dL
- DBIL [8]: 0 mg/dL
- IP [8]: 8.1 mg/dL
- K [8]: 4.1 meq/L
- LDH [8]: 181.4 IU/L
- Na [8]: 141 meq/L
- RALB [8]: 3 g/dL
- TBIL [8]: 0.014 mg/dL
- TP [8]: 5.6 g/dL
- gamma-GTP [8]: 1.4 IU/L
- TERMINAL_BW [9]: 218.1 g
- Bas [9]: 0%
- Eos [9]: 0.8%
- Fbg [9]: 267 mg/dL
- Lym [9]: 76.2%
- Mono [9]: 2.2%
- RBC [9]: 571.6 x10_4/ul
- Ret [9]: 6.9%
- WBC [9]: 60.8 x10_2/uL
- KIDNEY_L [9]: 1 g
- KIDNEY_R [9]: 1 g
- KIDNEY_TOTAL [9]: 2 g
- ALP [10]: 1429.4 IU/L
- CRE [10]: 0.2 mg/dL
- DBIL [10]: 0.002 mg/dL
- GLC [10]: 172 mg/dL
- IP [10]: 9.1 mg/dL
- K [10]: 4 meq/L
- LDH [10]: 121 IU/L
- Na [10]: 140.6 meq/L
- PL [10]: 126.8 mg/dL
- RALB [10]: 2.9 g/dL
- TBIL [10]: 0.02 mg/dL
- TC [10]: 66.2 mg/dL
- TG [10]: 46.8 mg/dL
- TP [10]: 5.1 g/dL
- gamma-GTP [10]: 1.4 IU/L
- TERMINAL_BW [11]: 221.5 g
- Bas [11]: 0%
- Eos [11]: 0.8%
- Fbg [11]: 318.2 mg/dL
- Lym [11]: 76.4%
- Mono [11]: 2.2%
- RBC [11]: 584.8 x10_4/ul
- Ret [11]: 7.5%
- WBC [11]: 76 x10_2/uL
- KIDNEY_L [11]: 1 g
- KIDNEY_R [11]: 1 g
- KIDNEY_TOTAL [11]: 2 g
- ALP [12]: 1392.8 IU/L
- CRE [12]: 0.2 mg/dL
- DBIL [12]: 0.004 mg/dL
- IP [12]: 8.7 mg/dL
- K [12]: 4.3 meq/L
- LDH [12]: 181.8 IU/L
- Na [12]: 142 meq/L
- RALB [12]: 3 g/dL
- TBIL [12]: 0.024 mg/dL
- TC [12]: 86.4 mg/dL
- TG [12]: 55.4 mg/dL
- TP [12]: 5.4 g/dL
- gamma-GTP [12]: 1.2 IU/L
- TERMINAL_BW [13]: 218.2 g
- Bas [13]: 0%
- Eos [13]: 0.8%
- Fbg [13]: 309.8 mg/dL
- Lym [13]: 74%
- Mono [13]: 1.6%
- RBC [13]: 591 x10_4/ul
- Ret [13]: 6.5%
- WBC [13]: 63.2 x10_2/uL
- KIDNEY_L [13]: 1 g
- KIDNEY_R [13]: 1 g
- KIDNEY_TOTAL [13]: 2 g
- ALP [14]: 1558.2 IU/L
- CRE [14]: 0.1 mg/dL
- DBIL [14]: 0.004 mg/dL
- IP [14]: 8.9 mg/dL
- K [14]: 4.4 meq/L
- LDH [14]: 118.4 IU/L
- Na [14]: 142.6 meq/L
- PL [14]: 148.2 mg/dL
- RALB [14]: 3 g/dL
- TBIL [14]: 0.028 mg/dL
- TG [14]: 71.6 mg/dL
- TP [14]: 5.4 g/dL
- gamma-GTP [14]: 1.2 IU/L
- TERMINAL_BW [15]: 231.5 g
- Bas [15]: 0%
- Eos [15]: 0.8%
- Fbg [15]: 319.6 mg/dL
- Lym [15]: 74.8%
- Mono [15]: 3%
- RBC [15]: 633.6 x10_4/ul
- Ret [15]: 7.1%
- WBC [15]: 84.6 x10_2/uL
- KIDNEY_L [15]: 1 g
- KIDNEY_R [15]: 1.1 g
- KIDNEY_TOTAL [15]: 2.1 g
- ALP [16]: 1496.4 IU/L
- CRE [16]: 0.1 mg/dL
- DBIL [16]: 0.002 mg/dL
- IP [16]: 9.1 mg/dL
- K [16]: 4.1 meq/L
- LDH [16]: 144.2 IU/L
- Na [16]: 141 meq/L
- PL [16]: 146.8 mg/dL
- RALB [16]: 3 g/dL
- TBIL [16]: 0.01 mg/dL
- TP [16]: 5.6 g/dL
- gamma-GTP [16]: 1.6 IU/L
